Series [1] relates to HCT116 cells. As to the kind of experiment: Inhibition of topotecan induced G2 arrest in vitro (FACS). Format: cell-based. To be noted: for inhibition of topotecan induced G2 arrest: 24 h.
Procedure: (§3) The compounds were added to the cells after G2 arrest induced by 18 h topotecan treatment at the indicated concentrations and incubated for a period of 24 h. Cells were then harvested and analyzed by FACS.
(§4) Fixed cells were centrifuged at 1600 rpm for 5 minutes and the ETOH was decanted. They were then washed with 2 ml of PBS, recentrifuged and decanted. The cells were then stained with propidium iodide. Cell cycle study was performed using a FACSCalibur (Becton Dickinson) using Cell-QuestPro software. Cell cycle distribution was determined using either Modfit (Verity software house, ME, USA) or WinMDI (Joseph Trotter, Scripps Institute) software.
In series [2] the test system is H460 cells. The series is described as above. Format: cell-based. To be noted: 24 h.
Procedure: as §3, §4
Series [3] concerns tumor. To be noted: 100 and 200 mg/kg, intraperitoneal injection, literature; cited from earlier work.
Series [4] concerns HCT116 cells. As to the kind of experiment: In vivo hollow fibre PD model, topotecan G2 arrested cells implanted in mice (FACS). As to conditions: for 0 h G2 % / 24 h % G1 / 24 h % G2 / Δ% G2/ Δ% G1 / SΔ % G2: Control TOP (vehicle); for SΔ % G2: % G2 at 24 h - % G2 at 0 h.
Procedure: Specifically, HCT116 cells were first arrested at G2 with topotecan (TOP) treatment. At the end of 18 h topotecan treatment, fibres were implanted subcutaneously to mice with 4 fibres per mouse (FIG. 3A). Control fibres without topotecan treatment were also included (FIGS. 3F, G). […] The first injection was administered immediately after fibre implantation while the second injection was given 5 hours later. Mice in the TOP alone control group (n=2) received vehicle (0.9% NaCl) only (FIG. 3D). After implantation, fibres (8 fibres per time point) were retrieved from mice at indicated time points. Cells were then flushed out from the fibres and analyzed by FACS and immunoblotting.
At indicated time points, fibres were removed from mice, wiped with gauze and placed in petri dishes or 6 well plates containing enough warm media to cover fibres. Both ends of the fibres were then cut open using forceps and scissors. The fibres were flushed twice with a 200 μL pipette filled with medium by inserting into fibre opening. The medium containing the cells were collected and centrifuged for 3-minutes at 1600 rpm. The supernatant was discarded and 1 mL of trypsin was added onto the pellets and mixed until single cell suspension is obtained. Then, 5 mL of serum rich medium was added to the cell suspension and centrifuged. The supernatant was then decanted leaving approximately 200 μL of cell suspension. The suspension was then added. drop wise while vortexing to 5 mL of ice cold 70% ETOH. Cells were then fixed at −20° C. for a minimum of 1 hour. The cells obtained were then processed according to FACS staining protocol. 3-8 fibres from each time point were typically used for FACS analysis.
Series [5] has as its system H460 cells. As to the kind of experiment: Topotecan induced G2 arrest in vitro (topotecan titration, FACS). The series is classed as cell-based. On the procedure:
(§1) To perform the experiments, cells were grown to 50% confluency in 10 cm dishes. The cells were then dosed with topotecan at indicated concentrations for 18 hours. Cells were then harvested and the G2 arrest was analyzed by FACS analysis 24 h later.
(§2) The cells were then stained with propidium iodide.

For series [6], the system named is HCT116 cells. The series is described as above. Format: cell-based. On the procedure:
as §1, §2

Series [7] relates to HCT116 cells. As to the kind of experiment: Double thymidine block and G2 arrest with brief topotecan treatment in vitro. The series is classed as cell-based. As to conditions: 1 h treatment, 24 h after block removal. The protocol: We adapted the study of G2 checkpoint regulation to the study of other cell cycle regulation pathways. Cells were first synchronized at the G1/S boundary by means of a double thymidine block (FIG. 7A-F). After synchronization, cells were harvested at indicated time points for observation of cell cycle progression (7B, C). To arrest cells at G2 checkpoint, the synchronized cells were incubated with topotecan at indicated concentrations for 1 h, and the topotecan was added 30 to 60 minutes after the release of double thymidine block. Topotecan treated cells were then harvested 24 h after double thymidine block and analyzed with FACS. Alternatively, at the end of double thymidine block, fibres were implanted to mice subcutaneously (4 fibres per mouse); fibres were retrieved from mice at the specified time points (8 fibres per time point) and analyzed by FACS. Control fibers without double thymidine treatment (8A, F) were also included.
Cells were plated onto 10-cm dishes on day 1 such that 30% confluence is reached on day 2. In hollow fibre experiments, loaded fibres were made on day 1, and incubated in the dishes overnight. On day 2, thymidine was added to the dishes to a final concentration of 2 mM. […] Cells were harvested 24 hours after the second thymidine treatment, and analyzed by FACS analysis. […]

Setting [8] is: TOP alone (50 nM, 18 h), 30 h, mean.
Where [9] appears, read: TOP alone (50 nM, 18 h), 30 h, single replicates, listed as TOP.

Consider three molecules from patent publication US20070172425A1, “Testing cell cycle regulation effect of a compound using a hollow fibre cell implant” (priority 2003, published 2007).

Values joined by “and” are separate entries in the source; they are usually repeats but may differ in a detail not shown here. Identical values can stand only once.

Consider `Cn1c(=O)c2c(ncn2C)n(C)c1=O` [Caffeine], for which the “inhibition of topotecan induced G2 arrest” value in series [1] (4 mM, HCT116) is reported as “significantly inhibits topotecan induced G2 arrest”; in series [2] (4 mM, H460), “significantly inhibits topotecan induced G2 arrest”. Also, the “sensitization of tumor to radiotherapy by inhibiting radiation induced G2 arrest” value in series [3] is listed as “sensitize tumor to radiotherapy”. The “inhibition of topotecan induced G2 arrest in tumor cells in vivo” value in series [4] (systemic injection to mice) is recorded as “inhibit topotecan induced G2 arrest”.

As for `Cn1c2ccccc2c2c3c(c4c5ccccc5n(CCC#N)c4c21)CNC3=O` [Go6976], the “inhibition of topotecan induced G2 arrest” value is reported as “effectively inhibits G2 arrest” in series [1] (1.3 μM, HCT116 (FIG. 2H)) and “effectively inhibits G2 arrest” in series [2] (5 μM, H460 (FIG. 2D)). In series [1] (Go6976 alone at the tested concentration), the “toxicity to cells (microscope, FACS)” value is given as “does not show any signs of toxicity”.

Take `CC[C@@]1(O)C(=O)OCc2c1cc1n(c2=O)Cc2cc3c(CN(C)C)c(O)ccc3nc2-1` [Topotecan]: the “time at which cells begin to reenter the cell cycle after topotecan treatment” value in series [5] (H460) is on record as “about 7 h”. The “concentration that sufficiently arrests cells at the G2 checkpoint” value in series [5] (H460, 18 h treatment) is 50 nM. Besides, in series [6] (HCT116), the “time at which cells begin to reenter the cell cycle after topotecan treatment” value is about 9 h. In series [6] (HCT116, 18 h treatment), the “minimal concentration required to achieve an efficient G2 arrest” value is listed as 25 nM. The “G2 arrest of double thymidine block synchronized cells” value in series [7] (2 μM) is reported as “complete G2 arrest”. Moreover, the “S phase arrest of double thymidine block synchronized cells” value in series [7] (5 μM) is given as “noticeable S phase arrest”. In addition, the “G2 arrest at 30 hour after implantation” value in series [4] (30 nM topotecan, 30 h) is about 70%. Moreover, in series [4] (50 nM topotecan 18 h, HCT116 in hollow fibres, 0 h), the “cells arrested at G2/M phase at time 0 h” value was “About 90%”. The “G2 arrest at 30 hour after implantation” value in series [4] (50 nM topotecan, 30 h) was “about 90%”. In series [4] (Exp. 1, 0 h), the “0 h G2 %” value was determined as 83.00%. Also, in series [4] (Exp. 1, 24 h), the “24 h % G1” value is listed as 23.00%, the “24 h % G2” value turned out to be 71.00% and the “Δ% G2/ Δ% G1” value amounted to 3.09. Moreover, the “SΔ % G2” value in series [4] (Exp. 1) is given as −12.00%. The “0 h G2 %” value in series [4] (Exp. 2, 0 h) is 69.00%. For the same molecule, in series [4] (Exp. 2, 24 h), the “24 h % G1” value is listed as 16.00%, the “24 h % G2” value is given as 58.00% and the “Δ% G2/ Δ% G1” value was determined as 3.63. Besides, in series [4] (Exp. 2), the “SΔ % G2” value was −11.00%. In series [4] (setting [8]), the “% G1, Mean” value is recorded as 7.9%; the “% G2, Mean” value is given as 88.7%; the “Odd (% G2/% G1), Mean” value is recorded as 11.4. Also, in series [4] (setting [9]), the “% G1” value was 7.3% and 7.2% and 9.0%; the “% G2” value was 88.1% and 90.2% and 87.9%; the “Odd (% G2/% G1)” value was 12.0 and 12.5 and 9.7. The Odd ratio in series [4] (TOP alone, reference group) is recorded as 1.0.
